Entries after “also recorded” stand apart in the source; their conditions may differ.
How the values were obtained:
γH2AX = test: Western blot of γH2AX as senescence marker in corneal epithelium, disepithelization model (Example 1); format: in vivo, mice
Protocol: Eight-week-old C57BL6/N (Charles River, Calco, Italy) (WT mice, n=8) and B6.Cg-Tac1tm1Bbm/J (Jackson Laboratories, Bar Harbor, Me., USA) (TAC1-KO mice, n=8) male mice were used in all experiments. Each animal was anesthetized with intraperitoneal injection of tribromoethanol (250 mg/kg) and a topical anesthetic was applied to their ocular surface prior to the surgical procedure. Disepithelization was performed based on the model previously described, using a blunt spatula to scrap the entire corneal epithelium from limbus to limbus. After wounding, eyes were treated with ophthalmic moxifloxacin 1 time/day for 1 week to […]. Fourteen days after disepithelization mice were euthanized using carbon dioxide inhalation and subsequent cervical dislocation. Corneas were collected for immunostaining and western blot analysis. […]
For Western Blot analysis, corneal epithelium was isolated after 30 minutes of EDTA treatment (Sigma-Aldrich Corp., St. Louis, Mo., USA) at 37° C. […] Bands were quantified using Image Lab™ software (Version 6.0.1, Bio-Rad Laboratories, Hercules, Calif., USA).
The expression of p70 S6 Kinase (P70S6), phospho-p70 S6 Kinase (pP70S6), and phospho-histone 2-AX (γH2AX) was evaluated by Western Blot, as previously described in section 2.9. […] Bands were quantified using Image J software (National Institutes of Health, Bethesda, Md., USA).

NK1R = target: T1, NK1R (Mus musculus, UniProt P30548); test: Epithelial corneal damage by corneal fluorescein staining, acute ocular GVHD mouse model; format: in vivo, mice; conditions: Fosaprepitant 10 mg/mL topically six times a day (BM+T+Fosa); from day 14, p<0.05
T1 construct: NK1R is expressed by both corneal epithelial and stem cell-like cells; from tissue; host or cells: cornea / ocular surface of live C57BL6/N mice (topical dosing in vivo)
Protocol: 10-week-old male BALB/C and C57BL/6N mice (Charles River Laboratory, Lecco, Italy) were used for all the experiments (n=5/each group). All mice were free from ocular surface disease at baseline. The housing conditions were controlled (temperature 22° C., light from 07:00-19:00, humidity 50%-60%), and fresh food and water were freely available. The animals were monitored 3 times per week for 28 days post-transplantation for in vivo slit-lamp microscopy imaging, ocular surface score and systemic GVHD score (FIG. 11A). Carbon dioxide inhalation and subsequent cervical dislocation were applied to euthanize the animals. All the experiments were approved by the Animal Care and Use Committee of the IRCCS San Raffaele Scientific Institute, in accordance with the ARVO Statement for the Use of Animals in Ophthalmic and Vision Research.
Allogenic BMT was conducted using the C57BL/6N and BALB/c mice as transplant donors and recipients, respectively. […]
Clinical examination was performed to evaluate the ocular disease progression. […] Tear production was quantified with phenol red thread test (Zone-Quick; Lacrimedics, Eastsound, Wash., USA). […] The length of the moistened thread was measured in both eyes and the average was used as lacrimal tear volume for comparative analysis.

T1 sequence (P30548 whole entry): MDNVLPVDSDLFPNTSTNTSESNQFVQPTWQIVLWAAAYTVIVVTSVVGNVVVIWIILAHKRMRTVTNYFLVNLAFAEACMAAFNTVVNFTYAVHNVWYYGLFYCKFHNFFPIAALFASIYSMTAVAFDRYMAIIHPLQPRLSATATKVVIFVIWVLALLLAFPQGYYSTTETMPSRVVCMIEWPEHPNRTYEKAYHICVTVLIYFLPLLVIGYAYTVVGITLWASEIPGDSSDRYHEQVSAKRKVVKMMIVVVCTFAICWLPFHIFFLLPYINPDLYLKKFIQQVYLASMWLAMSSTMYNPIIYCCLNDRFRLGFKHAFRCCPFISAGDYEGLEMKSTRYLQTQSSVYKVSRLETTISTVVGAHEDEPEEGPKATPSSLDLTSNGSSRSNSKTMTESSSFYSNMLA

C[C@@H](O[C@H]1OCCN(Cc2nc(=O)n(P(=O)(O)O)[nH]2)[C@H]1c1ccc(F)cc1)c1cc(C(F)(F)F)cc(C(F)(F)F)c1 [Fosaprepitant, [3-{[(2R,3S)-2-[(1R)-1-[3,5-bis(trifluoromethyl)phenyl]ethoxy]-3-(4-fluorophenyl)morpholin-4-yl]methyl}-5-oxo-2H-1,2,4-triazol-1-yl]phosphonic acid]
H2AX expression in comparison to WT (in words) (γH2AX; Fosaprepitant 10 mg/mL (WT-FOSA), western blot): decreased
decreased γH2AX expression in comparison to WT (γH2AX; Fosaprepitant 10 mg/mL topically four times a day for 14 days (WT-FOSA), p<0.05): 26%
corneal fluorescein staining compared to BM+T mice (NK1R): reduction; also recorded: significantly reduced
